The subject of data set [1] is PANC-1. The data set is described as follows: Cytotoxicity against human PANC1 cells at 50 uM after 72 hrs by WST-1 assay in presence of gemcitabine. Type of data set: functional, cell-based. On the technique in general: Formazan colour is commonly taken as a measure of viable cells.
The subject of data set [2] is PANC-1. The data set is described as follows: Cytotoxicity against human PANC1 cells at 50 uM after 72 hrs by WST-1 assay. The format is functional, cell-based.
In data set [3] the test system is NHDF. The data set can be described thus: Cytotoxicity against human NHDF cells at 50 uM after 72 hrs by WST-1 assay. The format is cell-based.
Data set [4] concerns DM443. The data set is described as follows: Cytotoxicity against human DM443 cells at 50 uM after 72 hrs by WST-1 assay. Type of data set: functional, cell-based.
In data set [5] the test system is DM738. The data set can be described thus: Cytotoxicity against human DM738 cells at 50 uM after 72 hrs by WST-1 assay. The format is functional, cell-based.

Activity data for eleven compounds are collected here from ChEMBL document CHEMBL1158498, “Synthesis of 4'-ester analogs of resveratrol and their evaluation in malignant melanoma and pancreatic cell lines” (Bioorg Med Chem Lett, 2010).

Active and inactive are the calls of the source. No cut-off for these calls is given here.

With `CCCCCCCCCCCCCCCC(=O)Oc1ccc(/C=C/c2cc(O)cc(O)c2)cc1`, the Activity result in data set [1] was “Not toxic”.
On the same count and under the same terms, for `Oc1ccc(/C=C/c2cc(O)cc(O)c2)cc1` the value was “Not toxic”.
For `CC(=O)Oc1ccc(/C=C/c2cc(O)cc(O)c2)cc1`, in data set [2], the outcome was Active. Further, in data set [3], the Activity result is recorded as “Non-toxic”.
Turning to `CCCC(=O)Oc1ccc(/C=C/c2cc(O)cc(O)c2)cc1`, the result in data set [4] and in data set [5] was Active. The Activity result in data set [1] was “Not toxic”.
Take `Oc1cc(F)cc(/C=C/c2ccc(F)cc2)c1`: the outcome in data set [4] and in data set [5] was Active. Moreover, the Activity result in data set [1] is “Not toxic”.
As to `CCCCCC(=O)Oc1ccc(/C=C/c2cc(O)cc(O)c2)cc1`, the outcome in data set [4] and in data set [5] was Active. Further, in data set [1], the Activity entry is “Not toxic”.
As for `CC(=O)Oc1cc(/C=C/c2ccc(O)cc2)cc(OC(C)=O)c1`, the Activity result in data set [1] was “Not toxic”.
For `O=C(CCCCC(=O)Oc1ccc(/C=C/c2cc(O)cc(O)c2)cc1)Oc1ccc(/C=C/c2cc(O)cc(O)c2)cc1`, the Activity result in data set [1] was “Not toxic”; in data set [3], “Non-toxic”.
Take `CC(C)C(=O)Oc1ccc(/C=C/c2cc(O)cc(O)c2)cc1`: the result in data set [4] and in data set [5] was Active. Further, the Activity entry in data set [1] was “Not toxic”.
With `CC(=O)Oc1ccc(/C=C/c2cc(OC(C)=O)cc(OC(C)=O)c2)cc1`, the outcome in data set [2] was Active. In data set [1], the Activity result was “Not toxic”.
For the compound `CC(=O)Oc1cc(O)cc(/C=C/c2ccc(O)cc2)c1`, the Activity entry in data set [1] was “Not toxic”.
